In patent US20250382293A1, “COMPOUNDS AND METHODS FOR YAP/TEAD MODULATION AND INDICATIONS THEREFOR” (OPNA BIO SA, priority 2023, published 2025) one finds IC50 data, which are given here for 25 compounds.

The test system of this test is TEAD-dependent transcription. The test can be described thus: Inhibitor activity against TEAD-dependent transcription in a cell-based reporter assay (MSTO-211H+12XGTIIC luciferase). Particulars: Homo sapiens; MSTO-211H+12XGTIIC cells, 24 hours compound incubation, luminescence normalized to cell viability signal; read-out: MSTO-211H GMean IC50 (uM) Cell Assay Reporter Cell Variant: TEAD. The text has this:
Determine Inhibitor Activity Against TEAD-Dependent Transcription in a Cell-Based Reporter Assay
The human mesothelioma cell line MSTO-211H was stably transfected with a pGL4.21 plasmid containing a synthetic promoter with 12 copies of the GTIIC TEAD response element that drives the expression of a luciferase reporter gene 1 using Lipofectamine transfection reagent (Thermo Fisher). Transfected cells were selected using puromycin and single cell clones expressing this construct (referred to as MSTO-211H+12XGTIIC) were generated by limiting dilution. MSTO-211H cells was characterized by genetic alterations in key components of the Hippo pathway^2, resulting in up-regulation of YAP/TEAD-mediated transcription. […] To evaluate TEAD inhibitors, the MSTO-211H+12XGTIIC cell line was seeded in a 96-well plate in 50 μL of culture media at 1×10^4 cells per well and incubated at 37° C. overnight. Serial dilutions of compounds (in total volume of 50 μL of culture media) were added to the cells and incubated at 37° C. for 24 hours. Each plate included cells treated with DMSO as high controls and cells treated with 20 μM of the reference compound K-975 (a known TEAD inhibitor) 3 as low controls. Cell viability was assayed by the addition of 25 μL of CellTiter-Fluor reagent (Promega) followed by a 30-minute incubation at 37° C. and quantification of the fluorescence signal (Ex400/Em505). Subsequently, luciferase expression was assayed by the addition of 25 μL of ONE-Glo reagent (Promega) followed by a 10-minute incubation at room temperature and quantification of the luminescence signal. The luminescence signal was normalized to the fluorescence signal to correct for any loss in cell viability over the 24-hour compound incubation period. The percentage of inhibition of normalized luminescence signal, indicative of compound-mediated inhibition of TEAD-dependent transcription, at individual compound concentrations relative to high and low controls was calculated. The data were analyzed by using nonlinear regression to generate IC50 values for individual compounds.

The structures appear in SMILES notation.

In the case of `O=S(=O)(c1ccccc1)N1CCc2cc(Oc3ccc(C(F)(F)F)cc3)ccc2C1` [O-0104, 2-(phenylsulfonyl)-6-(4-(trifluoromethyl)phenoxy)-1,2,3,4-tetrahydroisoquinoline], the IC50 (as a rule, the concentration needed to halve the response being measured) was in the range of 10 to 100 µM. As to `O=C(CCS(=O)(=O)C(F)(F)F)N1CCc2c(ncnc2Oc2ccc(C(F)(F)F)cc2)C1` [O-0003, 1-(4-(4-(trifluoromethyl)phenoxy)-5,8-dihydropyrido[3,4-d]pyrimidin-7(6H)-yl)-3-((trifluoromethyl)sulfonyl)propan-1-one], the IC50 was 0.001 to 10 µM. Take `CS(=O)(=O)N1CCCC(N2CCc3c(cccc3Oc3ccc(C(F)(F)F)cc3)C2)C1` (stereo not shown) [O-0111, 2-(1-(methylsulfonyl)piperidin-3-yl)-5-(4-(trifluoromethyl)phenoxy)-1,2,3,4-tetrahydroisoquinoline]: the IC50 was 0.001 to 10 µM. Consider `O=C(CCS(=O)(=O)C(F)(F)F)N1CCc2c(cccc2Oc2ccc(C(F)(F)F)nc2)C1` [O-0002, 1-(5-((6-(trifluoromethyl)pyridin-3-yl)oxy)-3,4-dihydroisoquinolin-2(1H)-yl)-3-((trifluoromethyl)sulfonyl)propan-1-one], for which the half-inhibitory concentration (IC50) is 0.001 to 10 µM. In the case of `C=CC(=O)N1CCC(N2CCc3c(cccc3Oc3ccc(C(F)(F)F)cc3)C2)C1` (stereo not shown) [O-0114, 1-(3-(5-(4-(trifluoromethyl)phenoxy)-3,4-dihydroisoquinolin-2(1H)-yl)pyrrolidin-1-yl)prop-2-en-1-one] it was 0.001 to 10 µM; in that of `CCCNS(=O)(=O)c1nc(C(=O)N2CCc3c(cccc3Oc3ccc(C(F)(F)F)cc3)C2)cs1` [O-0105, N-propyl-4-(5-(4-(trifluoromethyl)phenoxy)-1,2,3,4-tetrahydroisoquinoline-2-carbonyl)thiazole-2-sulfonamide], 0.001 to 10 µM. As for `CS(=O)(=O)N1CCC(N2CCc3c(cccc3Oc3ccc(C(F)(F)F)cc3)C2)CC1` [O-0120, 2-(1-(methylsulfonyl)piperidin-4-yl)-5-(4-(trifluoromethyl)phenoxy)-1,2,3,4-tetrahydroisoquinoline], the figure is 0.001 to 10 µM; as for `CS(=O)(=O)Nc1nc(C(=O)N2CCc3c(cccc3Oc3ccc(C(F)(F)F)c(F)c3)C2)co1` [O-0106, N-(4-(5-(3-fluoro-4-(trifluoromethyl)phenoxy)-1,2,3,4-tetrahydroisoquinoline-2-carbonyl)oxazol-2-yl)methanesulfonamide], 10 to 100 µM. Consider `C=CS(=O)(=O)N1CC(N2CCc3c(cccc3Oc3ccc(C(F)(F)F)cc3)C2)C1` [O-0118, 5-(4-(trifluoromethyl)phenoxy)-2-(1-(vinylsulfonyl)azetidin-3-yl)-1,2,3,4-tetrahydroisoquinoline.], for which the IC50 lay in the range of 10 to 100 µM.

On to `CS(=O)(=O)Nc1nc(C(=O)N2CCc3c(cccc3Oc3ccc(C(F)(F)F)cc3)C2)cs1` [O-0110, N-(4-(5-(4-(trifluoromethyl)phenoxy)-1,2,3,4-tetrahydroisoquinoline-2-carbonyl)thiazol-2-yl)methanesulfonamide], for which the IC50 is 0.001 to 10 µM. In the case of `C=CC(=O)N1CC(N2CCc3c(cccc3Oc3ccc(C(F)(F)F)cc3)C2)C1` [O-0119, 1-(3-(5-(4-(trifluoromethyl)phenoxy)-3,4-dihydroisoquinolin-2(1H)-yl)azetidin-1-yl)prop-2-en-1-one], the 50% inhibitory concentration (IC50) was in the range of 0.001 to 10 µM. Consider `C=CS(=O)(=O)N1CCC(N2CCc3c(cccc3Oc3ccc(C(F)(F)F)cc3)C2)C1` (stereo not shown) [O-0113, 5-(4-(trifluoromethyl)phenoxy)-2-(1-(vinylsulfonyl)pyrrolidin-3-yl)-1,2,3,4-tetrahydroisoquinoline], for which the IC50 is 0.001 to 10 µM. Consider `CS(=O)(=O)Nc1nc(C(=O)N2CCc3c(cccc3Oc3ccc(C(F)(F)F)c(F)c3)C2)cs1` [O-0109, N-(4-(5-(3-fluoro-4-(trifluoromethyl)phenoxy)-1,2,3,4-tetrahydroisoquinoline-2-carbonyl)thiazol-2-yl)methanesulfonamide], for which the IC50 lay within 10 to 100 µM. As to `C=CS(=O)(=O)N1CCc2cc(Oc3ccc(C(F)(F)F)cc3)ccc2C1` [O-0064, 6-(4-(trifluoromethyl)phenoxy)-2-(vinylsulfonyl)-1,2,3,4-tetrahydroisoquinoline], the IC50 was 0.001 to 10 µM. For the compound `O=C(c1c[nH]c(C(F)(F)F)n1)N1CCc2cc(Oc3ccc(C(F)(F)F)cc3)ccc2C1` [O-0074, (2-(trifluoromethyl)-1H-imidazol-4-yl)(6-(4-(trifluoromethyl)phenoxy)-3,4-dihydroisoquinolin-2(1H)-yl)methanone], the IC50 was 0.001 to 10 µM. As to `O=S(=O)(N1CCC(N2CCc3c(cccc3Oc3ccc(C(F)(F)F)cc3)C2)C1)C(F)(F)F` (stereo not shown) [O-0112, 5-(4-(trifluoromethyl)phenoxy)-2-(1-((trifluoromethyl)sulfonyl)pyrrolidin-3-yl)-1,2,3,4-tetrahydroisoquinoline.], the IC50 lay in the range of 0.001 to 10 µM. `C=CC(=O)N1CCc2cc(Oc3ccc(C(F)(F)F)cc3)ccc2C1` [O-0058, 1-(6-(4-(trifluoromethyl)phenoxy)-3,4-dihydroisoquinolin-2(1H)-yl)prop-2-en-1-one]: the IC50 was 0.001 to 10 µM.

`CNS(=O)(=O)c1nc(C(=O)N2CCc3c(cccc3Oc3ccc(C(F)(F)F)cc3)C2)cs1` [O-0107, N-methyl-4-(5-(4-(trifluoromethyl)phenoxy)-1,2,3,4-tetrahydroisoquinoline-2-carbonyl)thiazole-2-sulfonamide]: the IC50 lay within 0.001 to 10 µM. Turning to `O=S(=O)(N1CCC(N2CCc3c(cccc3Oc3ccc(C(F)(F)F)cc3)C2)CC1)C(F)(F)F` [O-0121, 5-(4-(trifluoromethyl)phenoxy)-2-(1-((trifluoromethyl)sulfonyl)piperidin-4-yl)-1,2,3,4-tetrahydroisoquinoline], the IC50 fell in the range of 0.001 to 10 µM. As to `C=CS(=O)(=O)N1CCC(N2CCc3c(cccc3Oc3ccc(C(F)(F)F)cc3)C2)CC1` [O-0122, 5-(4-(trifluoromethyl)phenoxy)-2-(1-(vinylsulfonyl)piperidin-4-yl)-1,2,3,4-tetrahydroisoquinoline], the IC50 was in the range of 10 to 100 µM. In the case of `CS(=O)(=O)N1CC(N2CCc3c(cccc3Oc3ccc(C(F)(F)F)cc3)C2)C1` [O-0115, 2-(1-(methylsulfonyl)azetidin-3-yl)-5-(4-(trifluoromethyl)phenoxy)-1,2,3,4-tetrahydroiso-quinoline] it was 0.001 to 10 µM; in that of `C=CC(=O)N1CCC(N2CCc3c(cccc3Oc3ccc(C(F)(F)F)cc3)C2)CC1` [O-0123, 1-(4-(5-(4-(trifluoromethyl)phenoxy)-3,4-dihydroisoquinolin-2(1H)-yl)piperidin-1-yl)prop-2-en-1-one], 0.001 to 10 µM; in that of `CCNS(=O)(=O)c1nc(C(=O)N2CCc3c(cccc3Oc3ccc(C(F)(F)F)cc3)C2)cs1` [O-0108, N-ethyl-4-(5-(4-(trifluoromethyl)phenoxy)-1,2,3,4-tetrahydroisoquinoline-2-carbonyl)thiazole-2-sulfonamide], 0.001 to 10 µM.

As to `O=S(=O)(N1CC(N2CCc3c(cccc3Oc3ccc(C(F)(F)F)cc3)C2)C1)C(F)(F)F` [O-0116, 5-(4-(trifluoromethyl)phenoxy)-2-(1-((trifluoromethyl)sulfonyl)azetidin-3-yl)-1,2,3,4-tetrahydroisoquinoline], the IC50 fell in the range of 0.001 to 10 µM. For the compound `O=C(CCl)N1CCc2cc(Oc3ccc(C(F)(F)F)cc3)ccc2C1` [O-0070, 2-chloro-1-(6-(4-(trifluoromethyl)phenoxy)-3,4-dihydroisoquinolin-2(1H)-yl)ethan-1-one], the IC50 was in the range of 0.001 to 10 µM.
